Measurements taken from US20200054633A1 (priority 2017, published 2020).

Conditions: 600 mg, OST placebo; N=74
Source text: This study followed a randomized, double-blind, placebo-controlled, parallel-group, multicenter design.
Analysis set for safety: Safety Set included all subjects who received at least 1 dose of study drug.

## O=C(O)[C@H]1C2CCC(CC2)[C@@H]1Nc1nc(-c2c[nH]c3ncc(F)cc23)ncc1F [Compound (1), Pimodivir]
  Any TEAE: 39 (52.7%)
  Any TEAE at least possibly related to study medication: 26 (35.1%)
  Any TEAE leading to a temporary stop of study medication: 2 (2.7%)
  Any TEAE leading to permanent stop of study medication: 3 (4.1%)
  Any TEAE with fatal outcome: 0
  Grade 3 TEAE: Anaemia: 0
  Grade 3 TEAE: Balance disorder: 0
  Grade 3 TEAE: Blood and lymphatic system disorders: 1 (1.4%)
  Grade 3 TEAE: Blood creatine phosphokinase increased: 1 (1.4%)
  Grade 3 TEAE: Bronchitis: 0
  Grade 3 TEAE: Constipation: 1 (1.4%)
  Grade 3 TEAE: Diarrhoea: 1 (1.4%)
  Grade 3 TEAE: Fatigue: 0
  Grade 3 TEAE: Gastrointestinal disorders: 2 (2.7%)
  Grade 3 TEAE: General disorders and administration site conditions: 0
  Grade 3 TEAE: Hyperkalaemia: 1 (1.4%)
  Grade 3 TEAE: Infections and infestations: 0
  Grade 3 TEAE: Investigations: 1 (1.4%)
  Grade 3 TEAE: Lymphopenia: 1 (1.4%)
  Grade 3 TEAE: Metabolism and nutrition disorders: 1 (1.4%)
  Grade 3 TEAE: Nausea: 0
  Grade 3 TEAE: Nervous system disorders: 0
  Grade 3 TEAE: Neutropenia: 0
  Grade 3 TEAE: Neutrophil count decreased: 0
  Grade 3 TEAE: Protein urine present: 0
  Grade 3 TEAE: Syncope: 0
  Grade 3 TEAE: Thrombocytopenia: 0
  Grade 3 TEAE: Vomiting: 0
  TEAE: Abdominal discomfort: 1 (1.4%) n (%)
  TEAE: Abdominal pain: 0 n (%)
  TEAE: Abdominal pain upper: 2 (2.7%) n (%)
  TEAE: Abdominal tenderness: 0 n (%)
  TEAE: Alanine aminotransferase increased: 2 (2.7%) n (%)
  TEAE: All events: 39 (52.7%) n (%)
  TEAE: Anaemia: 0 n (%)
  TEAE: Aphthous stomatitis: 0 n (%)
  TEAE: Aspartate aminotransferase increased: 1 (1.4%) n (%)
  TEAE: Atrioventricular block first degree: 0 n (%)
  TEAE: Back pain: 1 (1.4%) n (%)
  TEAE: Bacterial vaginosis: 0 n (%)
  TEAE: Balance disorder: 0 n (%)
  TEAE: Blood and lymphatic system disorders: 3 (4.1%) n (%)
  TEAE: Blood bicarbonate decreased: 0 n (%)
  TEAE: Blood bilirubin decreased: 0 n (%)
  TEAE: Blood bilirubin increased: 0 n (%)
  TEAE: Blood creatine phosphokinase increased: 1 (1.4%) n (%)
  TEAE: Blood creatinine increased: 0 n (%)
  TEAE: Blood glucose increased: 1 (1.4%) n (%)
  TEAE: Blood potassium increased: 1 (1.4%) n (%)
  TEAE: Blood pressure diastolic increased: 1 (1.4%) n (%)
  TEAE: Blood urine: 0 n (%)
  TEAE: Bradycardia: 1 (1.4%) n (%)
  TEAE: Bronchitis: 0 n (%)
  TEAE: Cardiac disorders: 1 (1.4%) n (%)
  TEAE: Constipation: 1 (1.4%) n (%)
  TEAE: Contusion: 1 (1.4%) n (%)
  TEAE: Cough: 1 (1.4%) n (%)
  TEAE: Decreased appetite: 0 n (%)
  TEAE: Dehydration: 0 n (%)
  TEAE: Diabetes mellitus: 0 n (%)
  TEAE: Diarrhoea: 20 (27.0%) n (%)
  TEAE: Dizziness: 2 (2.7%) n (%)
  TEAE: Dry mouth: 1 (1.4%) n (%)
  TEAE: Dry skin: 1 (1.4%) n (%)
  TEAE: Dysgeusia: 0 n (%)
  TEAE: Dyspepsia: 0 n (%)
  TEAE: Dyspnoea: 0 n (%)
  TEAE: Dysuria: 0 n (%)
  TEAE: Ear and labyrinth disorders: 0 n (%)
  TEAE: Ear discomfort: 0 n (%)
  TEAE: Ecchymosis: 0 n (%)
  TEAE: Electrocardiogram ST segment depression: 0 n (%)
  TEAE: Enteritis: 0 n (%)
  TEAE: Fatigue: 0 n (%)
  TEAE: Fungal infection: 0 n (%)
  TEAE: Gamma-glutamyltransferase increased: 1 (1.4%) n (%)
  TEAE: Gastrointestinal disorders: 22 (29.7%) n (%)
  TEAE: General disorders and administration site conditions: 0 n (%)
  TEAE: Glomerular filtration rate decreased: 1 (1.4%) n (%)
  TEAE: Gout: 0 n (%)
  TEAE: HIV antibody positive: 0 n (%)
  TEAE: HIV test positive: 0 n (%)
  TEAE: Haematuria: 0 n (%)
  TEAE: Haemoglobin decreased: 0 n (%)
  TEAE: Haemoglobin increased: 0 n (%)
  TEAE: Headache: 1 (1.4%) n (%)
  TEAE: Hepatic enzyme increased: 1 (1.4%) n (%)
  TEAE: Hepatitis C: 0 n (%)
  TEAE: Herpes simplex: 0 n (%)
